Laboratory results taken from patent US20250122193A1, “NOVEL PYRIDOCARBAZOLIUM COMPOUNDS AND MEDICAL USES THEREOF” (MyCural Therapeutics, priority 2021, published 2025).

Legend:
MYC protein turnover = biological target: T1, MYC protein turnover (Homo sapiens, UniProt P01106); assay: cycloheximide (CHX) chase of MYC; assay type: cell-based; conditions: wt HCT116 cells, 5 μM
T1 construct: Endogenous MYC was immunoprecipitated and detected by western blot analysis; endogenous in cells; host or cells: MCF7, HeLa, P493-6, HCT116 (WT, FBW7-/-, p53-/-)
T1 sequence (P01106 16-454): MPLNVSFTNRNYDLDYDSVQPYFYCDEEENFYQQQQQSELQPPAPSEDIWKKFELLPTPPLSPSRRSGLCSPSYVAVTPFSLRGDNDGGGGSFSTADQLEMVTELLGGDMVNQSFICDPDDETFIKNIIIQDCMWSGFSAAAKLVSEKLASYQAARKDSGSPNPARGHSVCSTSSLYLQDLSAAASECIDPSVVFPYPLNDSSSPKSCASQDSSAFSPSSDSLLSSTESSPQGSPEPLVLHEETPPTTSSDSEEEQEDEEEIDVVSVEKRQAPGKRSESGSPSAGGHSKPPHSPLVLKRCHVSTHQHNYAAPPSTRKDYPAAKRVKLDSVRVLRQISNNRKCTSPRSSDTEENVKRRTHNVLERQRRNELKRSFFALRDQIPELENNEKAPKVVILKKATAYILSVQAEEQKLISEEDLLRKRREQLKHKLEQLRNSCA
Description: FIG. 2: MYCMI-7 downregulates MYC and MYCN protein expresión. A) Steady state levels of MYC protein in MCF7 cells after 17 hours exposure to indicated concentrations MYCMI-7 or ellipticine B) MYC mRNA expression in MCF7 cells after treatment with MYCMI-7 for various time points. C) Steady state levels of MYC protein in different HCT116 cell lines (WT, FBW7−/− or p53−/−) after 17 hours exposure to 5 μM MYCMI-7. Endogenous MYC was immunoprecipitated and detected by western blot analysis. D) Cycloheximide (CHX) chase in HCT116 cells. Cells were subjected to 5 μM MYCMI-7 30 min prior cycloheximide addition. Cells were harvested after the indicated time points, MYC was immunoprecipitated using N262 antibody and the MYC levels analyzed using western blot (C33 antibody). E) CHX chase after MYCMI-7 treatment performed as in (D) using Fbxw7-deficient HCT116 cells. F) Stable expression of wt, T58A or S62A MYC in HO15.19 MYC−/− cells. The cells were treated with 5 μM MYCMI-7 overnight, and MYC expression was analyzed by western blot. G) Cartoon showing a linear structural representation of wt MYC and indicated mutants. […]
For western blot equal amounts of proteins ([…]) were separated on a 4-12% SDS-PAGE gel. Proteins were transferred to Immobilion-P membrane (Millipore) and detected by immunostaining and chemoluminescence (Immobilion western HRP substrate; Millipore). […]

[1] = system: normal rat embryo fibroblasts (REFs); assay: cell cycle distribution by flow cytometry, normal REFs; assay type: cell-based; conditions: 5 μM
Description: FIG. 4: MYCMI-7 induces apoptosis in malignant cells and growth arrest in normal cells. A) Cell cycle distribution analysis by flow cytometry of MYC-regulated P493-6 cells and normal rat embryo fibroblasts (REFs). Left panel, P493-6 synchronized in G0 by 24 hours treatment of […] doxycycline. Doxycycline was removed and the cells were harvested 48 hours after the addition of fresh medium containing DMSO or 5 μM MYCMI-7. Right panel, flow cytometry analysis of normal REFs treated with DMSO or 5 μM MYCMI-7. B) Apoptosis assay using the Cell Death Detection ELISA^plus kit. Left panel, immortalized Rat1 fibroblasts with different MYC status after 24 hours of 5 μM MYCMI-7 treatment, middle panel and right panels, normal REFs and normal peripheral blood lymphocytes, respectively, after 24 and 48 hours of 5 μM MYCMI-7 treatment. […] Viability was measured by trypan blue exclusion assay. F) Cell growth measured with Cyt62 assay of primary normal human epidermal melanocytes (NHEM) treated for 72 hours with MYCMI-7, G) Viability measured by trypan blue exclusion assay of NHEM after treatment for 72 hours with MYCMI-7.
Flow cytometry: P493-6 cells were synchronized using 1 μg/ml doxycycline. […] Cells were stained with propidium iodide (Sigma) and 1×10^4 cells per treatment were analyzed using a FACScan and CellQuestPro (Becton Dickinson). […]

pharmacokinetics in mice = conditions: 6.25 mg/kg i.p.
Description: Blood and brains were collected from three to four mice per group at 0, 1, 2, 4 and 24 hours following injection of 6.25 mg/kg ToM. Plasma samples were extracted using protein precipitation. Brain samples were extracted by homogenization in acetonitrile:DMSO, 95:5 using a gentleMACS Dissociater and gentleMACS™ M Tubes. The protein in the mouse plasma samples was removed by protein precipitation with acetonitrile containing the internal standard. After protein precipitation the study samples were centrifuged, and the resulting supernatant was analyzed. The acetonitrile:DMSO from the brain sample homogenates were spiked with the internal standard and then analyzed. All samples were analyzed by first separating them by reversed phase gradient LC and subsequently detecting them using positive electrospray ionization and multiple reaction monitoring (MRM).
(§1) First, we performed a pharmacokinetic study of the behavior of the molecule in mice.

[2] = system: MYCN-amplified SK-N-DZ neuroblastoma xenograft; assay: SK-N-DZ neuroblastoma xenograft
Description: A) Tumor growth of MDA-MB-231 xenografts in mice injected with 6.25 mg/kg MYCMI-7 or vehicle intratumorally twice a week until sacrificed. Tumor growth was monitored by measuring tumor size (mm^3) every 4th day. B) Survival curve of the mice in A) sacrificed when the tumors reached a volume of 1000 mm^3. C) Immunohistochemistry staining for MYC and apoptosis marker caspase 3 in MDA-MB-231 tumor tissue from vehicle- and MYCMI-7 treated animals at end point, D) Immunofluorescence staining of proliferation and apoptosis markers Ki67 and TUNEL, respectively, in MDA-MB-231 xenograft tumor tissue from vehicle- and MYCMI-7 treated animals at end point. E) MYCN-amplified SK-N-DZ neuroblastoma xenograft mice injected with 6.25 mg/kg MYCMI-7 or vehicle intratumorally twice a week until sacrificed. Tumor growth was monitored by measuring tumor volume (ml) daily. F) Survival curve of mice in E) sacrificed at a tumor volume of 1500 mm^3. G-H) H&E (G) and MYCN IHC (H) stainings of SK-N-DZ xenograft tumor tissue from vehicle- and MYCMI-7 treated animals at end point. A-H) At the end points, the last injection was done 3 hrs before sacrifice. Images were taken at 10× or 40× magnification.
For the xenograft transplantation mouse tumor models of breast cancer and neuroblastoma, 6-8 weeks old NOD/SCID mice (Taconic) or NMRI nu/nu (Scanbur) were injected s.c. with 5×10^6 MDA-MB-231 breast cancer cells or MYCN-amplified SK-N-DZ neuroblastoma cells. When tumors reached a size of 100-200 mm^3, mice started receiving treatment (6.25 mg/kg MYCMI-7) administered intratumorally (50 ml) twice per week. The last dose was administered 3 hrs before termination. Mice were sacrificed when the tumors had reached as size of 1000 mm^3 (MDA-MB-231) or 1500 mm^3 (SK-N-DZ). Tumors were collected and frozen in OCT (Cryomount, Histolab) or fixed in buffered 4% formaldehyde solution (Histolab) and paraffin-embedded.
Immunohistochemistry andimmunofluorescence: Apoptosis was visualized at the single-cell level on tumor cryosections using the TUNEL method using the In Situ Cell Death Detection Fluorescein-Roche kit and analyzed by fluorescence microscopy. Briefly, tumor cryosections were fixed in 4% paraformaldyde (PFA) and the assay was performed following the instructions from the manufacturer. Negative controls were run using the reagent without the TdT enzyme. Samples were mounted using Vectashield mounting medium (Vector) and DAPI was used as nuclear counterstaining. […] Visualization and image acquisition was done in a Zeiss microscope, and for panoramic views by a Vectra imaging system. For quantification, areas with positive TUNEL and Ki67 staining were measured using Image J software.

[3] = system: Human neuroblastoma cells; assay: growth/viability of neuroblastoma cells with or without MYCN-amplification; conditions: 6.25 μM, 24 hrs
Description: Cell proliferation/viability/metabolic activity was measured using the WST-1 assay. B) Human neuroblastoma cells with or without MYCN-amplification where treated with 6.25 μM MYCMI-7 or 64 μM 10058-F4 for 24 hrs. […] For the WST-1 assays the average of three different experiments performed in triplicates is shown.
Cell growth and viability assays: Cell growth and viability was estimated in triplicates with WST-1 (Roche) or Resazurin sodium salt (Sigma-Aldrich) assays in medium at 37° C. and 5% CO2 for 2 hours after which absorbance or fluorescence, respectively, was measured with an Omega Fluostar (BMG Labtech) in a 96 well plate format. Cell viability by the Cyt60 assay was carried out as in manufacturers' protocol.

[4] = 6.25 mg/kg intratumoral twice a week

Description for Caco2 cell assay: as §1

## CCN(CC)CC[n+]1ccc2c(C)c3[nH]c4ccccc4c3c(C)c2c1 [MYCMI-7, 2-(5,11-Dimethyl-6H-25-pyrido[4,3-b]carbazol-2-yl)-N,N-diethylethanamine bromide]
MYC protein turnover
  turnover rate of MYC (CHX chase): increased
[1]
  cell cycle effect: induced G1 arrest
  cell death: no increase in cell death
Caco2 cell assay
  efflux: strong efflux
Pharmacokinetics in mice
  detection in the brain: could not be detected
[2]; [4]
  survival: significantly increased survival
  tumor growth: reduced tumor growth
[2]; mouse, in vivo
  H&E staining of tumor tissue: massive apoptosis and/or necrosis as well as hemorrhage
  MYCN expression in tumor cells (IHC): strong reduction in MYCN expression
[3]
  effect in MYCN-amplified versus non-amplified neuroblastoma cells: significantly stronger
  tumor growth and viability in all neuroblastoma cell lines: reduced tumor growth and viability
